Test results: PMC7354218 (ACS infectious diseases, 2020)
Several values for one entry are separate records, joined by “and”; a condition that tells them apart may be missing. Equal entries are not always repeated. Structures can show the parent of a compound that is named as a salt. Where two headings read alike, the source gives them in different places.

Tests used:
[1] = tested on: NpsA; type: biochemical, Klebsiella oxytoca
[2] = tested on: NpsB; type: biochemical, Klebsiella oxytoca; settings: pH 8
[3] = tested on: K. oxytoca strain MIT 10-5243; type: cell-based, Klebsiella oxytoca; settings: read-out: IC50 for inhibition of tilivalline production
[4] = molecular target: NpsA; type: binding, Klebsiella oxytoca; settings: pH 6.8
[5] = molecular target: NpsA; type: biochemical, Klebsiella oxytoca; settings: read-out: appKi
[6] = tested on: K. oxytoca; type: cell-based, Klebsiella oxytoca
[7] = molecular target: T1, NpsA (wt-NpsA) (Klebsiella oxytoca, UniProt A0A291NW45); experiment: biochemical; type: binding; settings: n = 3
T1 sequence (A0A291NW45 1-506): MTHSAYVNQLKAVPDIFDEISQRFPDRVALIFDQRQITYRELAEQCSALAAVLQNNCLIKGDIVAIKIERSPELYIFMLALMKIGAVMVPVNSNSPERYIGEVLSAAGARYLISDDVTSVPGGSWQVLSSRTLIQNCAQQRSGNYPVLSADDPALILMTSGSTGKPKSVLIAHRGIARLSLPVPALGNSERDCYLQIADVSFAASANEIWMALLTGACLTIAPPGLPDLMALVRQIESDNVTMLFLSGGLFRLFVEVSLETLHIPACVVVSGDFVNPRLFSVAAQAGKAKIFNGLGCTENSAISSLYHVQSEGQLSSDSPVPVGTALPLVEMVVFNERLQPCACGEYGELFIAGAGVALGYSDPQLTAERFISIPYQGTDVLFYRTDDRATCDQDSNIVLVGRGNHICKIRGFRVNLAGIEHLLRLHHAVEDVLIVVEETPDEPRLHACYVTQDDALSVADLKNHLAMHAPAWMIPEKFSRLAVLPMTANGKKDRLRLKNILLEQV
T1 sequence (A0A291NW67 1-76 partner): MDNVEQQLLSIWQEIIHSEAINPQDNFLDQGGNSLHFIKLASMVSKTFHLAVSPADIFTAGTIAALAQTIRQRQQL

[8] = molecular target: T1, NpsA (wt-NpsA); experiment: biochemical; settings: n = 3
[9] = tested on: O=C(O)c1cccc(O)c1; experiment: purified protein, by the assay type; settings: pH 8.0
[10] = tested on: Nc1c(O)cccc1C(=O)O; experiment: purified protein, by the assay type; settings: pH 8.0
[11] = tested on: Nc1ncnc2c1ncn2[C@@H]1O[C@H](COP(=O)(O)OP(=O)(O)OP(=O)(O)O)[C@@H](O)[C@H]1O; experiment: purified protein, by the assay type; settings: pH 8.0

Compound: Nc1ccccc1C(=O)O [Anthranilic acid]
- Km [1]: 854 µM
- fold decrease in specificity constant (kcat/KM) [1]: 52 fold
- kcat (apparent) ([1]; pH 8): 0.29 ± 0.01 s⁻¹
- Km ([1]; read-out: KM (apparent), pH 8): 850 µM

Compound: O=C(O)[C@@H]1CCCN1 [L-Proline]
- kcat (apparent) [2]: 0.037 ± 0.002 s⁻¹

Compound: 5′-[N-(3-Hydroxybenzoyl)sulfamoyl]amino-5′-deoxyadenosine triethylammonium salt [Compound 8]
- IC50 [3]: 29000 nM
- Kd [4]: 112 nM
- Ki [5]: 230 nM
- growth inhibition of K. oxytoca [6]: no observable growth inhibition

Compound: 5′-[N-(2-Aminobenzoyl)sulfamoyl]amino-5′-deoxyadenosine triethylammonium salt [Compound 9]
- Kd [4]: 485 nM
- Ki [5]: 1200 nM

Compound: Nc1ccccc1C(=O)NS(=O)(=O)NC[C@H]1O[C@@H](n2cnc3c(N)ncnc32)[C@H](O)[C@@H]1O [compound 9, anthraniloyl-AMS; 5′-[N-(2-Aminobenzoyl)sulfamoyl]amino-5′-deoxyadenosine triethylammonium salt]
- Kd [7]: 485 nM
- Ki [8]: 1200 nM

Compound: NpsA (wt-NpsA) (Klebsiella oxytoca)
- Km [9]: (4.0 ± 0.9) × 10^3 uM
- kcat [9]: 0.35 ± 0.07 s⁻¹
- kcat/Km [9]: 88 ± 26 M⁻¹ s⁻¹
- Km [10]: (6.3 ± 0.2) × 10^1 uM
- kcat [10]: 0.78 ± 0.01 s⁻¹
- kcat/Km [10]: 18000 ± 1000 M⁻¹ s⁻¹
- Km [11]: (1.5 ± 0.1) × 10^1 uM
- kcat [11]: 0.82 ± 0.01 s⁻¹
- kcat/Km [11]: 56000 ± 4000 M⁻¹ s⁻¹

Compound: Nc1c(O)cccc1C(=O)NS(=O)(=O)NC[C@H]1O[C@@H](n2cnc3c(N)ncnc32)[C@H](O)[C@@H]1O [compound 5, 3-hydroxyanthraniloyl-AMS; 5′-[N-(2-Amino-3-hydroxybenzoyl)sulfamoyl]amino-5′-deoxyadenosine triethylammonium salt]
- Kd [7]: 29.3 nM
- Ki [8]: 54 nM

Compound: Nc1ncnc2c1ncn2[C@@H]1O[C@H](COP(=O)(O)OP(=O)(O)OP(=O)(O)O)[C@@H](O)[C@H]1O [ATP, adenosine triphosphate]
- kcat (apparent) ([1]; pH 8): 0.82 ± 0.01 s⁻¹
- Km ([1]; read-out: KM (apparent), pH 8): 15 µM
- kcat (apparent) [2]: 0.056 ± 0.002 s⁻¹
- Km ([2]; read-out: KM (apparent)): 21 µM

Compound: Nc1ncnc2c1ncn2[C@@H]1O[C@H](CNS(=O)(=O)NC(=O)c2cccc(O)c2)[C@@H](O)[C@H]1O [compound 8, 3-hydroxybenzoyl-AMS; 5′-[N-(3-Hydroxybenzoyl)sulfamoyl]amino-5′-deoxyadenosine triethylammonium salt]
- Kd [7]: 112 nM
- Ki [8]: 230 nM

Compound: O=C(O)c1cccc(O)c1 [3-Hydroxybenzoic acid]
- fold decrease in specificity constant (kcat/KM) [1]: 200 fold
- kcat (apparent) ([1]; pH 8): 0.35 ± 0.07 s⁻¹
- Km ([1]; read-out: KM (apparent), pH 8): 4000 µM

Compound: Nc1c(O)cccc1C(=O)O [3-Hydroxyanthranilic acid]
- kcat (apparent) ([1]; pH 8): 0.78 ± 0.01 s⁻¹
- Km ([1]; read-out: KM (apparent), pH 8): 63 µM

Compound: 5′-[N-(2-Amino-3-hydroxybenzoyl)sulfamoyl]amino-5′-deoxyadenosine triethylammonium salt [Compound 5]
- Kd [4]: 29 nM and 29.3 nM
- Ki [5]: 54 nM
- growth inhibition of K. oxytoca [6]: does not inhibit growth
